From patent US20240287368A1, “COMPOSITION CONTAINING REFRIGERANT, USE OF SAME, REFRIGERATOR HAVING SAME, AND METHOD FOR OPERATING SAID REFRIGERATOR” (DAIKIN INDUSTRIES, LTD., priority 2021, published 2024)

Columns and labels:
[1] = Occupational exposure limit (OEL) and ASHRAE toxicity class of mixed refrigerant, calculated from component OELs and mole fractions; details: ANSI/ASHRAE Standard 34-2019; for Occupational exposure limit: center composition of mixed refrigerant
Description: In the present specification, a “toxicity class A” refrigerant means that the occupational exposure limit (OEL) of the mixed refrigerant is 400 ppm or more in accordance with the US ANSI/ASHRAE Standard 34-2019. A “toxicity class B” refrigerant means that the occupational exposure limit of the mixed refrigerant is less than 400 ppm in accordance with the US ANSI/ASHRAE Standard 34-2019.
In the present disclosure, the occupational exposure limit (OEL) of a mixed refrigerant refers to a value evaluated based on the center composition, unless otherwise specified. However, calculation is performed with the OEL of each refrigerant as follows. • R32: 1000 ppm • R152a: 1000 ppm • HFO-1132(E): 350 ppm
The OEL of the center composition of a mixed refrigerant is calculated in accordance with the following formula.
wherein an represents the OEL of each refrigerant compound, and mfn represents the mole fraction of each refrigerant compound.
The occupational exposure limit (OEL value) of each mixed refrigerant was investigated.

[2] = component values used for the calculation; cited from earlier work

| SMILES | ASHRAE toxicity class [1] | Occupational exposure limit [1] | OEL of each refrigerant [2] |
| --- | --- | --- | --- |
| CC(F)F [0-2, 1,1-difluoroethane] | A (the occupational exposure limit (OEL) of the mixed refrigerant is 400 ppm or more) | 1000 ppm | – |
| F/C=C/F [0-1, trans-1,2-difluoroethylene] | B (the occupational exposure limit of the mixed refrigerant is less than 400 ppm) | 350 ppm | 350 ppm |
| FCF [0-3, difluoromethane] | A (the occupational exposure limit (OEL) of the mixed refrigerant is 400 ppm or more) | 1000 ppm | 1000 ppm |
